Assay type in all cases: functional
One assay concerns Staphylococcus aureus. In words: Antibacterial activity against Staphylococcus aureus at 100 ppm after 24 hr by cup-plate method. As to conditions: read-out: IZ.
A further assay deals with Escherichia coli. As to the kind of experiment: Antibacterial activity against Escherichia coli at 100 ppm after 24 hr by cup-plate method. As to conditions: read-out: IZ.
For a further assay, the system named is Fusarium graminearum. As to the kind of experiment: Antifungal activity against Fusarium graminearum at 100 ug after 7 days by poison-food method. As to conditions: 168 h, read-out: IZ.
A further assay has as its system Micrococcus luteus. As to the kind of experiment: Antibacterial activity against Micrococcus luteus at 100 ppm after 24 hr by cup-plate method. As to conditions: read-out: IZ.

The results in this text go back to ChEMBL document CHEMBL3045575, “Synthesis of tetracyclic aza-/oxa-naphthalen-8-ones and their antimicrobial activity” (2013).

Turning to `O=C1CC2c3ccc4ccccc4c3OC2N1c1ccc([N+](=O)[O-])cc1` (stereo not drawn), the zone of inhibition at 100 ppm in the assay on Staphylococcus aureus was 8 mm; in the assay with Escherichia coli, 8 mm; in the assay with Micrococcus luteus, 10 mm. For the same compound, in the assay with Fusarium graminearum, the zone of inhibition at 100 µg/disc amounted to 25 mm.
Regarding `CC1(C)S[C@@H]2[C@H](NC(=O)[C@H](N)c3ccccc3)C(=O)N2[C@H]1C(=O)O` [AMPICILLIN], the zone of inhibition at 100 ppm in the assay with Staphylococcus aureus came out at 5 mm; with Escherichia coli, 4 mm; in the assay on Micrococcus luteus, 5 mm.
Turning to `O=C1CC2c3ccc4ccccc4c3OC2N1c1cccc([N+](=O)[O-])c1` (stereo not drawn), the zone of inhibition at 100 ppm in the assay with Staphylococcus aureus was found to be 21 mm; in the assay on Escherichia coli, 9 mm; in the assay on Micrococcus luteus it was 9 mm. For the same compound, in the assay with Fusarium graminearum, the zone of inhibition at 100 µg/disc was 25 mm.
Turning to `O=C1CC2c3ccc4ccccc4c3OC2O1` (stereo not drawn), the zone of inhibition at 100 ppm in the assay with Staphylococcus aureus was 10 mm; in the assay with Escherichia coli it was 11 mm; in the assay on Micrococcus luteus it was 10 mm. The zone of inhibition at 100 µg/disc in the assay with Fusarium graminearum was found to be 45 mm.
With `Cc1ccc(N2C(=O)CC3c4ccc5ccccc5c4OC32)cc1` (stereo not drawn), the results for the zone of inhibition at 100 ppm in the assay on Staphylococcus aureus, in the assay on Escherichia coli and in the assay on Micrococcus luteus were 11 mm, 10 mm and 18 mm, respectively. In addition, the zone of inhibition at 100 µg/disc with Fusarium graminearum amounted to 50 mm.
The corresponding values for `O=C1CC2c3ccc4ccccc4c3OC2N1c1ccccc1` (stereo not drawn) are 10 mm, 11 mm, 11 mm and 45 mm.
